Consider one compound from patent US20100266191A1, “METHOD FOR QUANTIFYING AN UNDERLYING PROPERTY OF A MULTITUDE OF SAMPLES” (priority 2007, published 2010).

The test relates to GFP-human Akt3 fusion protein. As to the kind of experiment: Akt3/PKBγ Redistribution assay (inhibition of IGF-I-stimulated membrane translocation). To be noted: dose response fit of the estimated process coordinate, two-parameter formula, FIG. 15; IGF-I as reference agonist; read-out: Wortmannin concentration causing 50% changes (a). The class given is cell-based. On the procedure: The Akt3/PKBγ Redistribution® assay from BioImage (http://www.bioimage.com) monitors translocation of GFP-human Akt3 fusion protein from the cytoplasm to the plasma membrane. Insulin-like growth factor-I (IGF-I) is used as reference agonist, and compounds are assayed for their ability to inhibit IGF-I-stimulated membrane translocation of Akt3/PKBγ. In inhibited cells, fluorescence is quite evenly distributed in the cytoplasmic space. In activated cells, there are spots of high intensity on the membrane area. Exemplary images from negative and positive control samples are presented on FIG. 1. […] The measured profiles for a series of positive and negative control samples are presented on FIG. 10. […] The measured profiles aid us in deciding how many segments we create and where their borders are. […] On FIG. 12, mean intensities of the three segments are plotted as read out parameters from images of positive control samples (left) and negative control samples (right). […] It is a linear combination of original intensities determined from the condition given in Eq. 4. […]

With `COC[C@H]1OC(=O)c2coc3c2[C@@]1(C)C1=C(C3=O)[C@@H]2CCC(=O)[C@@]2(C)C[C@H]1OC(C)=O` [Wortmannin, wortmannin], the IC50 was 36.4 ± 3 nM.
